pIC50: −log10 of the molar value. Values joined by “and” are separate entries in the source; they are usually repeats but may differ in a detail not shown here. Equal entries are not always repeated.
Target: Genome polyprotein (dengue virus type 2, UniProt P29990)
Format: functional, Thailand/16681/1984

Chain of Genome polyprotein (P29990 1346-1475 limits assumed): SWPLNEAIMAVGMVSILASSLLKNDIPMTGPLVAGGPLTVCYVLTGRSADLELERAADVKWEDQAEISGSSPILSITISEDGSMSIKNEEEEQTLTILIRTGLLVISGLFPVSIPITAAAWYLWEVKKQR
Chain of Genome polyprotein (P29990 1476-2093 limits assumed): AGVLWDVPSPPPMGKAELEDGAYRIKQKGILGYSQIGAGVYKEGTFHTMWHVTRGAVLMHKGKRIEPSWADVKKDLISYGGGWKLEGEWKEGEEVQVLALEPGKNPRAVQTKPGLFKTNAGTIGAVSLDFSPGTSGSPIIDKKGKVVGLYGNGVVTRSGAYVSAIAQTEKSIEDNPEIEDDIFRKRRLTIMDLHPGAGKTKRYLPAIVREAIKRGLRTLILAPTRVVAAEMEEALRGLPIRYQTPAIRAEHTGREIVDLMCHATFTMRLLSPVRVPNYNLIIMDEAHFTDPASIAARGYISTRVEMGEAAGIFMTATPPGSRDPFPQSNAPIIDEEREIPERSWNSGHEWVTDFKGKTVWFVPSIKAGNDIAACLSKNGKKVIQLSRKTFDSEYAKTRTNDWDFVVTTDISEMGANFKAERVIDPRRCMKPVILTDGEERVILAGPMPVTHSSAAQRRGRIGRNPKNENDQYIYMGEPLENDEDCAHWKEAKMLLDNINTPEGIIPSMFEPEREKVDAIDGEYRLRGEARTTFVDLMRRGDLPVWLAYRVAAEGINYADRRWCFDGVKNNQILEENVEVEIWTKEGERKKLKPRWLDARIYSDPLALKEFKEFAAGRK

SMILES | pIC50
O=C1c2c(O)ccc([N+](=O)[O-])c2C(=O)c2c([N+](=O)[O-])ccc(O)c21 | 4.90 and < 4.00
O=C(C(=O)N1CCOCC1)c1c[nH]c2ccccc12 | < 4.00
COc1ccc(S(=O)(=O)n2nc(OC(=O)c3cccc(-c4ccccc4Cl)c3)cc2N)cc1 | < 4.00
CCCCCC(=O)N[C@H](C(=O)NCc1cccc(CN)c1)c1ccc(OCc2ccccc2)cc1 | 4.07
CCCC[C@H](NC(C)=O)C(=O)N[C@H](C(=O)NCc1ccc(C(N)=O)cc1)c1ccc(OCc2ccccc2)cc1 | < 4.00
NC(=O)c1cccc(NC(=O)[C@@H](NC(=O)c2ccc(Oc3ccc(C(F)(F)F)cc3)cc2)c2ccc(OCc3ccccc3)cc2)c1 | < 4.00
O=C(Nc1ccc2c(c1)B(O)OC2)c1cccc(OCc2c(Cl)cccc2Cl)c1 | < 4.00
COc1ccc(S(=O)(=O)Nc2ccc(C(=O)Nc3nc4ccccc4s3)cc2)cc1 | < 4.00
CNC(=O)c1cc(Cl)ccc1NS(=O)(=O)c1cccc(Oc2ccccc2)c1 | < 4.00
O=C(N[C@H]1CCNC1=O)c1cc(Cl)ccc1NS(=O)(=O)c1ccc(Oc2ccccc2Cl)cc1 | 4.06
CN(C)c1ccc(/C=C/C(=O)C(=O)N2CCOCC2)cc1 | 4.05
Nc1ccc(C(=O)Nc2nc3ccccc3s2)nc1 | < 4.00
C[C@@H](NC(=O)c1cc(Cl)ccc1NS(=O)(=O)c1ccc(Oc2ccccc2Cl)cc1)[C@H]1CCCO1 | < 4.00
O=C(c1cc(Cl)ccc1NS(=O)(=O)c1ccc(Oc2ccccc2Cl)cc1)N1CC[C@H](CO)C1 | 4.04
CNC(=O)c1cc(Cl)ccc1NS(=O)(=O)c1ccc(OC2CCCC2)nc1 | < 4.00
O=C(N[C@H]1CCOC1)c1cc(Cl)ccc1NS(=O)(=O)c1ccc(Oc2ccccc2Cl)cc1 | 4.17
O=S(=O)(Nc1ccc(Oc2ccccc2Cl)cc1)c1c[nH]c2ccc(Cl)cc12 | < 4.00
Cc1ccc(CNC(=O)c2cc(Cl)ccc2NS(=O)(=O)c2ccc(Oc3ccccc3Cl)cc2)s1 | < 4.00
Cc1nnc([C@H](C)n2cc(C3CCNCC3)c(C)n2)o1 | < 4.00
CC[C@H]1CCN(C(=O)c2cc(Cl)ccc2NS(=O)(=O)c2ccc(Oc3ccccc3Cl)cc2)C1 | < 4.00
CCCC[C@@H](NC(=O)OC(C)(C)C)C(=O)N[C@@H](C(=O)NCc1ccc(CN)cc1)c1ccc(OCc2ccccc2)cc1 | 4.44
O=C(/C=C/c1ccc(N2CCNCC2)cc1)C(=O)N1CCOCC1 | < 4.00
CNC(=O)c1cccc(CNc2cc(Cl)cc(C(=O)NC(C)(C)CO)c2)c1 | < 4.00
CCCC[C@H](N)C(=O)N[C@H](C(=O)NCc1ccc(C(N)=O)cc1)c1ccc(OCc2ccccc2)cc1 | < 4.00
CCc1ccc(NS(=O)(=O)c2ccc(Oc3ccccc3Cl)cc2)c(C(=O)NC)c1 | < 4.00
CNC(=O)c1cc(OC)ccc1NS(=O)(=O)c1ccc(Oc2ccccc2Cl)cc1 | < 4.00

SMILES | pIC50
C[C@H]1COCCN1C(=O)c1cc(Cl)ccc1NS(=O)(=O)c1ccc(Oc2ccccc2Cl)cc1 | 4.02
CNC(=O)c1cc(Cl)c(OC)cc1NS(=O)(=O)c1ccc(Oc2ccccc2Cl)cc1 | 4.50
CCCC[C@H](N)C(=O)N[C@@H](C(=O)NCc1ccc(C(N)=O)cc1)c1ccc(OCc2ccccc2)cc1 | < 4.00
COC[C@@H](C)CNC(=O)c1cc(Cl)ccc1NS(=O)(=O)c1ccc(Oc2ccccc2Cl)cc1 | < 4.00
CNC(=O)c1cc(C#N)ccc1NS(=O)(=O)c1ccc(Oc2ccccc2Cl)cc1 | 4.35
NC(=O)c1cn(C[C@H]2CCCN2c2ccnc3ccccc23)nn1 | < 4.00
Nc1ccc(/C=C/C(=O)C(=O)N2CCN(CCc3ccccc3)CC2)cc1 | < 4.00
CCCC[C@H](NC(C)=O)C(=O)N[C@H](C(=O)NCc1ccc(CN)cc1)c1ccccc1 | < 4.00
CCn1ccnc(N2CC[C@H](c3cccnc3)C2)c1=O | < 4.00
CCn1ccnc(N2CC[C@H](c3ccn[nH]3)C2)c1=O | < 4.00
NC(=O)c1ccccc1NS(=O)(=O)c1ccc(Oc2ccccc2Cl)cc1 | < 4.00
CCCN(C)C(=O)c1cc(Cl)ccc1NS(=O)(=O)c1ccc(Oc2ccccc2Cl)cc1 | 4.55
CCCCCNC(=O)c1cc(Cl)ccc1NS(=O)(=O)c1ccc(Oc2ccccc2Cl)cc1 | < 4.00
CCn1ccnc(N2C[C@@H](O)[C@H](c3c[nH]c4ccccc34)C2)c1=O | < 4.00
O=C(O)c1cccc(NC(=O)c2cccc(OCc3c(Cl)cccc3Cl)c2)c1 | < 4.00
CNC(=O)c1cccc(CCC(=O)Nc2cc(Cl)cc(C(=O)NC(C)(C)CO)c2)c1 | < 4.00
N=C(N)NCCc1ccc(OC(=O)Nc2ccccc2)cc1 | < 4.00
Cc1cc(NS(=O)(=O)c2ccc(Oc3ccccc3Cl)cc2)c(C(=O)NCC(F)(F)F)cc1F | 4.66
CCCC[C@H](NC(=O)OC(C)(C)C)C(=O)N[C@H](C(=O)NCc1ccc(C(N)=O)cc1)c1ccc(OCc2ccccc2)cc1 | < 4.00
CCn1ccnc(N2CC[C@@H](C(=O)NC)C2)c1=O | < 4.00
N#Cc1cccc(NC(=O)c2cccc(OCc3c(Cl)cccc3Cl)c2)c1 | < 4.00
O=C(c1cc(Cl)ccc1NS(=O)(=O)c1ccc(Oc2ccccc2Cl)cc1)N1CCCC1 | 4.18
NCc1cccc(NC(=O)[C@@H](NC(=O)OCc2ccccc2)c2ccc(F)cc2F)c1 | < 4.00
CCn1c(=O)c(N2CC[C@@H](CO)C2)nc2ccccc21 | < 4.00
CC(C)c1ccc([C@@H](NC(=O)OCc2ccccc2)C(=O)Nc2cccc(CN)c2)cc1 | < 4.00
CS(=O)(=O)Nc1ccc(C(=O)Nc2nc3ccccc3s2)cc1 | < 4.00

SMILES | pIC50
CNC(=O)c1cc(Br)cnc1NS(=O)(=O)c1ccc(Oc2ccccc2Cl)cc1 | 4.15
CCn1ccnc(N2CCC(c3c[nH]c4ccccc34)CC2)c1=O | < 4.00
O=C(NCc1cocn1)c1cc(Cl)ccc1NS(=O)(=O)c1ccc(Oc2ccccc2Cl)cc1 | 4.61
COc1cc(Cc2c(-c3ccc(F)cc3)noc2C)nc(N2CCNCC2)n1 | < 4.00
C[C@@H](NC(=O)c1cc(Cl)ccc1NS(=O)(=O)c1ccc(Oc2ccccc2Cl)cc1)C1COC1 | 4.15
NCc1cccc(NC(=O)[C@H]2c3ccccc3CCN2C(=O)OCc2ccccc2)c1 | < 4.00
CC(C)Nc1nc2ccc(C(=O)Nc3nnnn3-c3ccccn3)cc2[nH]1 | < 4.00
NCc1cccc(NC(=O)[C@@H](NC(=O)OCc2ccccc2)C(C2CCC2)C2CCC2)c1 | < 4.00 and 4.00
CCn1ccnc(N2CC[C@@H](CC(N)=O)C2)c1=O | < 4.00
N=C(N)Nc1ccc(NC(=O)Oc2ccccc2)cc1 | < 4.22
COc1cc(COc2cncc3ccccc23)nc(N2CCNCC2)n1 | < 4.00
O=S(=O)(Nc1ccc(Cl)cc1)c1ccc(Oc2ccccc2Cl)cc1 | < 4.00
CCn1ccnc(N2CC[C@H](c3cccc(C#N)c3)C2)c1=O | < 4.00
CN(C)Cc1ccc(C(=O)Nc2cc(Cl)cc(C(=O)NC(C)(C)CO)c2)[nH]1 | < 4.00
CCn1ccnc(N2CC[C@H](c3c[nH]c4ccccc34)C2)c1=O | < 4.00
N=C(N)Nc1ccc(OC(=O)Nc2ccccc2)cc1 | < 4.00
O=C(NCC1CC1)c1cc(Cl)ccc1NS(=O)(=O)c1ccc(Oc2ccccc2Cl)cc1 | 4.66
NCc1ccc(/C=C/C(=O)C(=O)N2CCOCC2)cc1 | < 4.00
CCn1ccnc(N2CC[C@H](c3ccc(OC)nc3)C2)c1=O | < 4.00
CCn1ccnc(N2CC[C@H](c3ccc(F)cc3)C2)c1=O | < 4.00
CCn1ccnc(N2CC[C@H](C3CCOCC3)C2)c1=O | < 4.00
N=C(N)NCCc1ccc(NC(=O)Oc2ccccc2)cc1 | < 4.00
CNC(=O)c1cc(Cl)ccc1NS(=O)(=O)c1ccc(Oc2ccccc2Cl)cc1 | 4.47
NCc1cccc(NC(=O)[C@@H](NC(=O)OCc2ccccc2)c2cc(F)cc(F)c2)c1 | < 4.00
CCn1ccnc(N2CC[C@H](c3ccncc3)C2)c1=O | < 4.00
CC(C)CNC(=O)c1cc(Cl)ccc1NS(=O)(=O)c1ccc(Oc2ccccc2Cl)cc1 | 4.89

SMILES | pIC50
CCCC[C@H](NC(C)=O)C(=O)N[C@H](C(=O)Nc1ccc(C(N)=O)cc1)c1ccc(OCc2ccccc2)cc1 | < 4.00
CC(C)(CO)NC(=O)c1cc(Cl)cc(NC(=O)c2cc(Cl)ccc2O)c1 | < 4.00
CS(=O)(=O)c1ccc(N2CCNCC2)cc1NC(=O)c1cccc2ncccc12 | < 4.00
CCOc1ccc([C@@H](NC(=O)OCc2ccccc2)C(=O)Nc2cccc(CN)c2)cc1 | < 4.00
O=C(c1cc(Cl)ccc1NS(=O)(=O)c1ccc(Oc2ccccc2Cl)cc1)N1CCC[C@@H]1CO | 4.20
CCn1ccnc(N2CC[C@H](C#N)C2)c1=O | < 4.00
CCn1ccnc(N2CC[C@@H](CO)C2)c1=O | < 4.00
NCc1cccc(NC(=O)[C@@H](NC(=O)OCc2ccccc2)c2cccc(F)c2F)c1 | < 4.00
CN(CCS(N)(=O)=O)C(=O)c1cc(Cl)ccc1NS(=O)(=O)c1ccc(Oc2ccccc2Cl)cc1 | 4.08
CCn1ccnc(N2CC[C@@H](Cc3ccncc3)C2)c1=O | < 4.00
O=C(O)c1cccc(NC(=O)c2ccc3[nH]ccc3c2)c1 | < 4.00
CCn1ccnc(N2CC[C@@H](CC#N)C2)c1=O | < 4.00
CCCC[C@H](NC(C)=O)C(=O)N[C@H](C(=O)NCc1ccc(CN)cc1)c1ccc(OCc2ccccc2)cc1 | 4.11
Cc1cc(-n2nccc2NC(=O)[C@]2(c3ccc(F)cc3)CCCNC2)ncn1 | < 4.00
N=C(N)NCCc1cccc(B(O)O)c1 | < 4.00
N=C(N)NCc1ccc(NC(=O)Oc2ccccc2)cc1 | < 4.22
N=C(N)NCc1ccc(OC(=O)Nc2ccccc2)cc1 | < 4.00
O=C(NCc1ccccc1)c1cc(O)ccc1NS(=O)(=O)c1ccc(Oc2ccccc2Cl)cc1 | 4.06
CNC(=O)c1cc(Cl)c(F)cc1NS(=O)(=O)c1ccc(Oc2ccccc2Cl)cc1 | 4.83
NCc1cccc(NC(=O)[C@@H](NC(=O)OCc2ccccc2)c2ccc(Cl)cc2)c1 | < 4.00
CNC(=O)c1cnncc1NS(=O)(=O)c1ccc(Oc2ccccc2Cl)cc1 | < 4.00
CC[C@H]1CCN(c2nccn(CC)c2=O)C1 | < 4.00
O=C(O)c1cc(Cl)ccc1NS(=O)(=O)c1ccc(Oc2ccccc2Cl)cc1 | 4.86
CC(C)(CO)NC(=O)c1cc(Cl)cc(NC(=O)c2ccc(O)nc2)c1 | < 4.00
CCn1ccnc(N2CC[C@H](c3ccc(C#N)cc3)C2)c1=O | < 4.00
O=C(Nc1ccc(F)nc1)Oc1ccccc1 | < 4.22

— ChEMBL document CHEMBL5604063, “ASAP - DENV-2 NS2B-NS3 protease fluorescence dose response” (2024)
